IC50 data for 38 compounds are collected here from US20240025856A1, “1,2,3,4-TETRAHYDROQUINOLINE DERIVATIVES AS INHIBITORS OF THE YAP/TAZ-TEAD ACTIVATION FOR TREATING CANCER” (KATHOLIEKE UNIVERSITEIT LEUVEN, priority 2020, published 2024).

The experiment has as its system YAP/TAZ-TEAD transcription. Description: Reporter gene assay for measuring the inhibition of YAP/TAZ-TEAD transcription (TEAD-responsive element luciferase reporter in Hek293T cells). It is filed as cell-based. The following applies: Homo sapiens, HEK-293T, 24 h, Hek293T cells transiently transfected with TEAD-responsive element luciferase reporter; 24 hours incubation. Here is the method:
Hek293T cells are cultured in DMEM supplemented with 10% fetal bovine serum, Sodium pyruvate, Sodium bicarbonate, L-glutamine. The cells are harvested and transiently transfected with TEAD-responsive element luciferase reporter. Transfected cells are plated in 384-wells plate containing pre-diluted compounds. After 24 hours incubation at 37° C./5% CO2, assay plates were cooled down to RT and levelled to an equal volume per well, prior to the addition of 25 uL luciferase substrate SteadyLite (Perkin Elmer)/well. The plate was shaken for 10 min at 600 rpm, centrifuged for 1 min at 500 rpm and measured with an Envision reader (PerkinElmer). The amount of relative light units produced by the TEAD reporter is used to calculated percent of inhibition. The percent of reporter inhibition was calculated in the presence of a positive control inhibitor (100% inhibition) versus a condition with the presence of the vehicle basal activity of the reporter (0% inhibition). The ability of a test compound to inhibit this activity was determined as: Percentage inhibition=[[…]((RLU determined in the presence of vehicle−RLU determined for sample with test compound present) divided by (RLU determined in the presence of vehicle−RLU determined for sample with positive control inhibitor))]*100
The activities of example compounds tested are depicted in the table below. The activity ranges A, B and C refer to IC50 values in the reporter gene assay as follows: “A”: IC50<1 μM; “B”: 1 μM≤IC50≤20 μM and “C”: IC50>20 μM; NT=not tested.
Take `C=CC(=O)NC1Cc2ccccc2N(c2ccc(-c3ccccc3)cc2)C1` (centres unmarked) [compound 008, N-(1-([1,1′-biphenyl]-4-yl)-1,2,3,4-tetrahydroquinolin-3-yl)acrylamide]: the IC50 was below 1000 nM. `C=CC(=O)NC1Cc2ccccc2N(c2cccc(-c3ccccc3)c2)C1` (centres unmarked) [compound 009, N-(1-([1,1′-biphenyl]-3-yl)-1,2,3,4-tetrahydroquinolin-3-yl)acrylamide] returned an IC50 of 1000 to 20000 nM. Consider `C=CC(=O)NC1Cc2ccccc2N(c2ccc(C(F)(F)F)nc2)C1` (centres unmarked) [compound 010, N-(1-(6-(trifluoromethyl)pyridin-3-yl)-1,2,3,4-tetrahydroquinolin-3-yl)acrylamide], for which the IC50 is below 1000 nM. `C=CC(=O)NC1Cc2ccccc2N(c2ccc(C(F)(F)F)cn2)C1` (centres unmarked) [compound 011, N-(1-(5-(trifluoromethyl)pyridin-2-yl)-1,2,3,4-tetrahydroquinolin-3-yl)acrylamide] gave an IC50 below 1000 nM. `C=CC(=O)NC1Cc2ccccc2N(c2ccnc(C(F)(F)F)c2)C1` (centres unmarked) [compound 012, N-(1-(2-(trifluoromethyl)pyridin-4-yl)-1,2,3,4-tetrahydroquinolin-3-yl)acrylamide] came in with an IC50 of 1000 to 20000 nM. Turning to `C=CC(=O)NC1Cc2ccccc2N(C2CCCCC2)C1` (centres unmarked) [compound 013, N-(1-cyclohexyl-1,2,3,4-tetrahydroquinolin-3-yl)acrylamide], the IC50 is below 1000 nM.

`C=CC(=O)NC1Cc2ccccc2N(c2ccc(C(=O)NC)cc2)C1` (centres unmarked) [compound 014, 4-(3-acrylamido-3,4-dihydroquinolin-1(2H)-yl)-N-methylbenzamide] came in with an IC50 of 1000 to 20000 nM.

Turning to `C=CC(=O)NC1Cc2ccccc2N(c2cccc(NC(C)=O)c2)C1` (centres unmarked) [compound 015, N-(1-(3-acetamidophenyl)-1,2,3,4-tetrahydroquinolin-3-yl)acrylamide], the half-inhibitory concentration (IC50) was in the range of 1000 to 20000 nM. `C=CC(=O)NC1Cc2ccccc2N(c2ccc3[nH]ccc3c2)C1` (centres unmarked) [compound 016, N-(1-(1H-indol-5-yl)-1,2,3,4-tetrahydroquinolin-3-yl)acrylamide] yielded an IC50 of 1000 to 20000 nM. Consider `C=CC(=O)NC1Cc2ccccc2N(c2ccc3cc[nH]c3c2)C1` (centres unmarked) [compound 017, N-(1-(1H-indol-6-yl)-1,2,3,4-tetrahydroquinolin-3-yl)acrylamide], for which the IC50 was below 1000 nM. `C=CC(=O)NC1Cc2ccccc2N(c2ccc(F)c(F)c2)C1` (centres unmarked) [compound 018, N-(1-(3,4-difluorophenyl)-1,2,3,4-tetrahydroquinolin-3-yl)acrylamide] yielded an IC50 below 1000 nM. The compound `C=CC(=O)NC1Cc2ccccc2N(c2ccc(C3CCCCC3)cc2)C1` (centres unmarked) [compound 019, N-(1-(4-cyclohexylphenyl)-1,2,3,4-tetrahydroquinolin-3-yl)acrylamide] came in with a half-inhibitory concentration (IC50) below 1000 nM. `C=CC(=O)NC1Cc2ccccc2N(c2ccc(C(F)F)cc2)C1` (centres unmarked) [compound 020, N-(1-(4-(difluoromethyl)phenyl)-1,2,3,4-tetrahydroquinolin-3-yl)acrylamide] yielded a concentration for half-maximal inhibition (IC50) below 1000 nM. As for `C=CC(=O)NC1Cc2ccccc2N(c2ccc(OC(F)F)cc2)C1` (centres unmarked) [compound 022, N-(1-(4-(difluoromethoxy)phenyl)-1,2,3,4-tetrahydroquinolin-3-yl)acrylamide], the IC50 was below 1000 nM.

As to `C=CC(=O)NC1Cc2ccccc2N(c2cccc(F)c2)C1` (centres unmarked) [compound 024, N-(1-(3-fluorophenyl)-1,2,3,4-tetrahydroquinolin-3-yl)acrylamide], the IC50 was below 1000 nM. To `C=CC(=O)NC1Cc2ccccc2N(c2cccc(F)c2F)C1` (centres unmarked) [compound 025, N-(1-(2,3-difluorophenyl)-1,2,3,4-tetrahydroquinolin-3-yl)acrylamide] belongs below 1000 nM; to `C=CC(=O)NC1Cc2ccccc2N(c2cc(F)ccc2F)C1` (centres unmarked) [compound 026, N-(1-(2,5-difluorophenyl)-1,2,3,4-tetrahydroquinolin-3-yl)acrylamide], below 1000 nM; to `C=CC(=O)NC1Cc2ccccc2N(c2cc(F)cc(F)c2)C1` (centres unmarked) [compound 027, N-(1-(3,5-difluorophenyl)-1,2,3,4-tetrahydroquinolin-3-yl)acrylamide], below 1000 nM.

For `C=CC(=O)NC1Cc2ccccc2N(c2cnc(C(F)(F)F)nc2)C1` (centres unmarked) [compound 031, N-(1-(2-(trifluoromethyl)pyrimidin-5-yl)-1,2,3,4-tetrahydroquinolin-3-yl)acrylamide], the IC50 is below 1000 nM. In turn, `C=CC(=O)NC1Cc2ccccc2N(c2cccc(Cl)c2)C1` (centres unmarked) [compound 032, N-(1-(3-chlorophenyl)-1,2,3,4-tetrahydroquinolin-3-yl)acrylamide] returned a half-inhibitory concentration (IC50) below 1000 nM.

Take `C=CC(=O)NC1Cc2ccccc2N(c2ccc(Cl)cc2)C1` (centres unmarked) [compound 033, N-(1-(4-chlorophenyl)-1,2,3,4-tetrahydroquinolin-3-yl)acrylamide]: the IC50 was below 1000 nM.

With `C=CC(=O)NC1Cc2ccccc2N(c2ccc(C)cc2C)C1` (centres unmarked) [compound 034, N-(1-(2,4-dimethylphenyl)-1,2,3,4-tetrahydroquinolin-3-yl)acrylamide], the IC50 is below 1000 nM. `C=CC(=O)NC1Cc2ccccc2N(c2ccc(F)cc2)C1` (centres unmarked) [compound 035, N-(1-(4-fluorophenyl)-1,2,3,4-tetrahydroquinolin-3-yl)acrylamide]: the IC50 was below 1000 nM. To `C=CC(=O)NC1Cc2ccccc2N(c2ccc(F)cc2F)C1` (centres unmarked) [compound 036, N-(1-(2,4-difluorophenyl)-1,2,3,4-tetrahydroquinolin-3-yl)acrylamide] belongs below 1000 nM; to `CCC(=O)NC1Cc2ccccc2N(c2ccc(C(F)(F)F)cc2)C1` (centres unmarked) [compound 037, N-(1-(4-(trifluoromethyl)phenyl)-1,2,3,4-tetrahydroquinolin-3-yl)propionamide], 1000 to 20000 nM. Consider `CC(C)=CC(=O)NC1Cc2ccccc2N(c2ccc(C(F)(F)F)cc2)C1` (centres unmarked) [compound 038, 3-methyl-N-(1-(4-(trifluoromethyl)phenyl)-1,2,3,4-tetrahydroquinolin-3-yl)but-2-enamide], for which the concentration for half-maximal inhibition (IC50) lay within 1000 to 20000 nM. In turn, `C#CC(=O)NC1Cc2ccccc2N(c2ccc(C(F)(F)F)cc2)C1` (centres unmarked) [compound 040, N-(1-(4-(trifluoromethyl)phenyl)-1,2,3,4-tetrahydroquinolin-3-yl)propiolamide] gave a half-inhibitory concentration (IC50) below 1000 nM. To `CN(C)C/C=C/C(=O)NC1Cc2ccccc2N(c2ccc(C(F)(F)F)cc2)C1` (centres unmarked) [compound 041, (E)-4-(dimethylamino)-N-(1-(4-(trifluoromethyl)phenyl)-1,2,3,4-tetrahydroquinolin-3-yl)but-2-enamide] belongs 1000 to 20000 nM; to `N#CC1CN(C2Cc3ccccc3N(c3ccc(C(F)(F)F)cc3)C2)C1=O` (centres unmarked) [compound 042, 2-oxo-1-(1-(4-(trifluoromethyl)phenyl)-1,2,3,4-tetrahydroquinolin-3-yl)azetidine-3-carbonitrile], 1000 to 20000 nM; to `OCCNC1Cc2ccccc2N(c2ccc(C(F)(F)F)cc2)C1` (centres unmarked) [compound 043, 2-((1-(4-(trifluoromethyl)phenyl)-1,2,3,4-tetrahydroquinolin-3-yl)amino)ethan-1-ol], below 1000 nM.

As to `O=C(O)CNC1Cc2ccccc2N(c2ccc(C(F)(F)F)cc2)C1` (centres unmarked) [compound 044, (1-(4-(trifluoromethyl)phenyl)-1,2,3,4-tetrahydroquinolin-3-yl)glycine], the IC50 is above 20000 nM. Take `OCCCNC1Cc2ccccc2N(c2ccc(C(F)(F)F)cc2)C1` (centres unmarked) [compound 045, 3-((1-(4-(trifluoromethyl)phenyl)-1,2,3,4-tetrahydroquinolin-3-yl)amino)propan-1-ol]: the IC50 is 1000 to 20000 nM.

The compound `O=C(O)CCNC1Cc2ccccc2N(c2ccc(C(F)(F)F)cc2)C1` (centres unmarked) [compound 046, 3-((1-(4-(trifluoromethyl)phenyl)-1,2,3,4-tetrahydroquinolin-3-yl)amino)propanoic acid] returned an IC50 below 1000 nM. In turn, `CS(=O)(=O)NC1Cc2ccccc2N(c2ccc(C(F)(F)F)cc2)C1` (centres unmarked) [compound 047, N-(1-(4-(trifluoromethyl)phenyl)-1,2,3,4-tetrahydroquinolin-3-yl)methanesulfonamide] showed an IC50 below 1000 nM. To `C=CS(=O)(=O)NC1Cc2ccccc2N(c2ccc(C(F)(F)F)cc2)C1` (centres unmarked) [compound 048, N-(1-(4-(trifluoromethyl)phenyl)-1,2,3,4-tetrahydroquinolin-3-yl)ethenesulfonamide] belongs below 1000 nM.

The compound `CS(=O)(=O)CCNC1Cc2ccccc2N(c2ccc(C(F)(F)F)cc2)C1` (centres unmarked) [compound 049, N-(2-(methylsulfonyl)ethyl)-1-(4-(trifluoromethyl)phenyl)-1,2,3,4-tetrahydroquinolin-3-amine] had a concentration for half-maximal inhibition (IC50) of 1000 to 20000 nM.

On to `O=S1(=O)CCN1C1Cc2ccccc2N(c2ccc(C(F)(F)F)cc2)C1` (centres unmarked) [compound 050, 2-(1-(4-(trifluoromethyl)phenyl)-1,2,3,4-tetrahydroquinolin-3-yl)-1,2-thiazetidine-1,1-dioxide], for which the IC50 lay in the range of 1000 to 20000 nM. To `CNS(=O)(=O)CCNC1Cc2ccccc2N(c2ccc(C(F)(F)F)cc2)C1` (centres unmarked) [compound 051, N-methyl-2-((1-(4-(trifluoromethyl)phenyl)-1,2,3,4-tetrahydroquinolin-3-yl)amino)ethane-1-sulfonamide] belongs 1000 to 20000 nM.
